# Test results taken from patent US9765092B2, “Tricyclic piperidine compounds” (ACTELION PHARMACEUTICALS LTD, priority 2013, dated 2017).
# Molecular target: human TPH1 (Homo sapiens (Human), UniProt P17752)
# Assay: Biochemical in vitro assay using fluorescence readout (TPH1 inhibition)
# Settings: full length human TPH1, 40 μM L-tryptophan, 15° C., 60 minutes, fluorescence at 540 nm; mean if determined several times
# Text: Biochemical In Vitro Assay Using Fluorescence Readout
# To generate the enzyme, full length human TPH1 is cloned into the plasmid pET20b(+) (Novagen) and expressed in E. coli. The bacterial cells are ruptured by sonication on ice and the lysate is cleared by centrifugation. The resulting protein in the pellet is re-extracted and TPH1 is purified from the obtained lysate by affinity chromatography using a pterin cosubstrate analog immobilized to the resin of the column. The protein is further purified by size exclusion chromatography to remove protein aggregates. The activity of TPH1 is determined by using a fluorescence assay. The enzyme activity assay is carried out at 15° C. with atmosphere oxygen for the duration of 60 minutes in a volume of 64 μl. The reaction is carried out in a 0.1 M Tris-HCl buffer, adjusted to pH 7.6, containing 1 mM DTT, 0.2 mg/mL catalase, 100 μM (±)-6-methyl-5,6,7,8-tetrahydropterine dihydrochloride, 40 μM L-tryptophan, and 40-80 nM of TPH1. The reaction is started by bringing together L-tryptophan with all the other reaction substituents and stopped by quenching with perchloric acid (HClO4). The amount of 5-hydroxy-L-tryptophan produced during the enzymatic reaction is determined by fluorescence readout. Fluorescence, as determined at 540 nm when excited at 300 nm wavelength, increases proportionally to the 5-hydroxy-L-tryptophan formed. Compounds are prepared as 10 mM stock solution in DMSO, then diluted in 384-well plates using DMSO followed by a transfer of the dilutions into the assay plate. Fluorescence is measured for each well and the fluorescence at 540 nm wavelength is compared to the fluorescence of the vehicle in place of compound. Inhibitory activities of example compounds with respect to the TPH1 protein are determined by calculating the IC50 value (the concentration of compound needed to inhibit 50% of the enzyme activity). The calculated IC50 values may fluctuate depending on the daily biochemical assay performance. Fluctuations of this kind are known to those skilled in the art.
# Chain of human TPH1 (P17752 whole entry): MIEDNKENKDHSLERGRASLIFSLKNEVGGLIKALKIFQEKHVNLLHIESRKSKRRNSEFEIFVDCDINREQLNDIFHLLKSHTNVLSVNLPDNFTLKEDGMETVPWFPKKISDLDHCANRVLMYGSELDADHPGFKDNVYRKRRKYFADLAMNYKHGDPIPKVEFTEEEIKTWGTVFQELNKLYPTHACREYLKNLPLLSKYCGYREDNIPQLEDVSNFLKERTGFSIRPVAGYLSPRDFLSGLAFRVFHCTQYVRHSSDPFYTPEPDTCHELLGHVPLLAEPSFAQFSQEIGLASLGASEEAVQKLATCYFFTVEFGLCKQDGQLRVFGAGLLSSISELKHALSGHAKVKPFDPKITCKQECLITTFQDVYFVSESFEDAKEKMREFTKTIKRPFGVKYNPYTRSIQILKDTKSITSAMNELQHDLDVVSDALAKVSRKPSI
row,Compound,IC50 [nM]
1,"COC(=O)CCS(=O)(=O)c1ccc(OCC(=O)N2CCc3nc4sc(C)nn4c3C2c2ccc(Cl)cc2F)c(Cl)n1 (centres unmarked) [Example 1.4.11, Methyl 3-((6-chloro-5-(2-(5-(4-chloro-2-fluorophenyl)-2-methyl-7,8-dihydro-[1,3,4]thiadiazolo[2′,3′:2,3]imidazo[4,5-c]pyridin-6(5H)-yl)-2-oxoethoxy)pyridin-2-yl)sulfonyl)propanoate]",57
2,"Cc1nn2c3c(nc2s1)CCN(C(=O)COc1ccc(S(N)(=O)=O)nc1Cl)C3c1ccc(Cl)cc1F (centres unmarked) [Example 1.4.12, 6-Chloro-5-(2-(5-(4-chloro-2-fluorophenyl)-2-methyl-7,8-dihydro-[1,3,4]thiadiazolo[2′,3′:2,3]imidazo[4,5-c]pyridin-6(5H)-yl)-2-oxoethoxy)pyridine-2-sulfonamide]",57
3,"Cc1nn2c3c(nc2s1)CCN(C(=O)COc1ccc(N(C)CCO)nc1Cl)C3c1ccc(Cl)cc1F (centres unmarked) [Example 1.4.13, 1-(5-(4-Chloro-2-fluorophenyl)-2-methyl-7,8-dihydro-[1,3,4]thiadiazolo[2′,3′:2,3]imidazo[4,5-c]pyridin-6(5H)-yl)-2-((2-chloro-6-((2-hydroxyethyl)-(methyl)amino)pyridin-3-yl)oxy)ethanone]",5
4,"COCCN(C)c1ccc(OCC(=O)N2CCc3nc4sc(C)nn4c3C2c2ccc(Cl)cc2F)c(Cl)n1 (centres unmarked) [Example 1.4.14, 1-(5-(4-Chloro-2-fluorophenyl)-2-methyl-7,8-dihydro-[1,3,4]thiadiazolo[2′,3′:2,3]imidazo[4,5-c]pyridin-6(5H)-yl)-2-((2-chloro-6-((2-methoxyethyl)(methyl)-amino)pyridin-3-yl)oxy)ethanone]",3
5,"Cc1nn2c3c(nc2s1)CCN(C(=O)COc1ccc(N2C(C)CCC2C)nc1Cl)C3c1ccc(Cl)cc1F (centres unmarked) [Example 1.4.15, 1-(5-(4-chloro-2-fluorophenyl)-2-methyl-7,8-dihydro-[1,3,4]thiadiazolo[2′,3′:2,3]imidazo[4,5-c]pyridin-6(5H)-yl)-2-((2-chloro-6-(2,5-dimethylpyrrolidin-1-yl)pyridin-3-yl)oxy)ethanone]",6

# Same assay, conditions: human TPH1, fluorescence readout
row,Compound,IC50 [nM]
1,"1-(5-(4-chloro-2-fluorophenyl)-7,8-dihydrothiazolo[2′,3′:2,3]imidazo[4,5-c]pyridin-6(5H)-yl)-2-(2-ethyl-4-fluorophenoxy)ethanone [Example 6.4.1]",14
2,"2-(4-(aminomethyl)-2-chlorophenoxy)-1-(5-(3-fluorothiophen-2-yl)-2-methyl-7,8-dihydro-[1,3,4]thiadiazolo[2′,3′:2,3]imidazo[4,5-c]pyridin-6(5H)-yl)ethanone [Example 1.23.7]",38
3,"2-((2-chloro-6-morpholinopyridin-3-yl)oxy)-1-(5-(4-(2-hydroxypropan-2-yl)thiophen-2-yl)-2-methyl-7,8-dihydro-[1,3,4]thiadiazolo[2′,3′:2,3]imidazo[4,5-c]pyridin-6(5H)-yl)ethanone [Example 1.19.1]",6
4,"5-(2-(5-(4-(aminomethyl)-2-fluorophenyl)-2-methyl-7,8-dihydro-[1,3,4]thiadiazolo[2′,3′:2,3]imidazo[4,5-c]pyridin-6(5H)-yl)-2-oxoethoxy)-6-chloro-N-cyclopropylpicolinamide [Example 1.78.2]",18
5,"COc1ccc(C2c3c(nc4sc(C)nn34)CCN2C(=O)COc2ccc3ccccc3c2)cc1OC (centres unmarked) [Example 1.1.1, 1-(5-(3,4-dimethoxyphenyl)-2-methyl-7,8-dihydro-[1,3,4]thiadiazolo[2′,3′:2,3]imidazo[4,5-c]pyridin-6(5H)-yl)-2-(naphthalen-2-yloxy)ethanone]",10
6,"Cc1nn2c3c(nc2s1)CCN(C(=O)COc1ccc(CN2CCOCC2)nc1Cl)C3c1cccnc1F (centres unmarked) [Example 1.2.1, 2-((2-chloro-6-(morpholinomethyl)pyridin-3-yl)oxy)-1-(5-(2-fluoropyridin-3-yl)-2-methyl-7,8-dihydro-[1,3,4]thiadiazolo[2′,3′:2,3]imidazo[4,5-c]pyridine-6(5H)yl) ethanone]",208
7,"COc1ccc(C2c3c(nc4sc(C)nn34)CCN2C(=O)COc2ccc(CN3CCOCC3)nc2Cl)c(F)c1 (centres unmarked) [Example 1.3.2, 2-((2-chloro-6-(morpholinomethyl)pyridin-3-yl)oxy)-1-(5-(2-fluoro-4-methoxyphenyl)-2-methyl-7,8-dihydro-[1,3,4]thiadiazolo[2′,3′:2,3]imidazo[4,5-c]pyridin-6(5H)-yl)ethanone]",9
8,"COc1ccc(C2c3c(nc4sc(C)nn34)CCN2C(=O)COc2ccc(C(=O)NC3CC3)nc2Cl)c(F)c1 (centres unmarked) [Example 1.3.3, 6-chloro-N-cyclopropyl-5-(2-(5-(2-fluoro-4-methoxyphenyl)-2-methyl-7,8-dihydro-[1,3,4]thiadiazolo[2′,3′:2,3]imidazo[4,5-c]pyridin-6(5H)-yl)-2-oxoethoxy)picolinamide]",10
9,"COc1ccc(C2c3c(nc4sc(C)nn34)CCN2C(=O)COc2ccc(NS(C)(=O)=O)nc2Cl)c(F)c1 (centres unmarked) [Example 1.3.4, N-(6-chloro-5-(2-(5-(2-fluoro-4-methoxyphenyl)-2-methyl-7,8-dihydro-[1,3,4]thiadiazolo[2′,3′:2,3]imidazo[4,5-c]pyridin-6(5H)-yl)-2-oxoethoxy)pyridin-2-yl)methanesulfonamide]",8
10,"Cc1nn2c3c(nc2s1)CCN(C(=O)COc1ccc(CN2CCOCC2)nc1Cl)C3c1ccc(Cl)cc1F (centres unmarked) [Example 1.4.1, 1-(5-(4-chloro-2-fluorophenyl)-2-methyl-7,8-dihydro-[1,3,4]thiadiazolo[2′,3′:2,3]imidazo[4,5-c]pyridin-6(5H)-yl)-2-((2-chloro-6-(morpholinomethyl)pyridin-3-yl)oxy)ethanone]",9
11,"CCc1nc(C)ccc1OCC(=O)N1CCc2nc3sc(C)nn3c2C1c1ccc(Cl)cc1F (centres unmarked) [Example 1.4.2, 1-(5-(4-chloro-2-fluorophenyl)-2-methyl-7,8-dihydro-[1,3,4]thiadiazolo[2′,3′:2,3]imidazo[4,5-c]pyridin-6(5H)-yl)-2-((2-ethyl-6-methylpyridin-3-yl)oxy)ethanone]",13
12,"Cc1nn2c3c(nc2s1)CCN(C(=O)COc1ccc(N2CCOCC2)cc1Cl)C3c1ccc(Cl)cc1F (centres unmarked) [Example 1.4.3, 1-(5-(4-chloro-2-fluorophenyl)-2-methyl-7,8-dihydro-[1,3,4]thiadiazolo[2′,3′:2,3]imidazo[4,5-c]pyridin-6(5H)-yl)-2-(2-chloro-4-morpholinophenoxy)ethanone]",4
13,"CCc1ncccc1OCC(=O)N1CCc2nc3sc(C)nn3c2C1c1ccc(Cl)cc1F (centres unmarked) [Example 1.4.5, 1-(5-(4-chloro-2-fluorophenyl)-2-methyl-7,8-dihydro-[1,3,4]thiadiazolo[2′,3′:2,3]imidazo[4,5-c]pyridin-6(5H)-yl)-2-((2-ethylpyridin-3-yl)oxy)ethanone]",13
14,"CCc1nc(C(F)F)ccc1OCC(=O)N1CCc2nc3sc(C)nn3c2C1c1ccc(Cl)cc1F (centres unmarked) [Example 1.4.6, 1-(5-(4-chloro-2-fluorophenyl)-2-methyl-7,8-dihydro-[1,3,4]thiadiazolo[2′,3′:2,3]imidazo[4,5-c]pyridin-6(5H)-yl)-2-((6-(difluoromethyl)-2-ethylpyridin-3-yl)oxy)ethanone]",11
15,"Cc1nn2c3c(nc2s1)CCN(C(=O)COc1ccc(N(C)C)nc1Cl)C3c1ccc(Cl)cc1F (centres unmarked) [Example 1.4.7, 1-(5-(4-chloro-2-fluorophenyl)-2-methyl-7,8-dihydro-[1,3,4]thiadiazolo[2′,3′:2,3]imidazo[4,5-c]pyridin-6(5H)-yl)-2-((2-chloro-6-(dimethylamino)pyridin-3-yl)oxy)ethanone]",6
16,"COC(=O)c1ccc(OCC(=O)N2CCc3nc4sc(C)nn4c3C2c2ccc(Cl)cc2F)c(Cl)n1 (centres unmarked) [Example 1.4.8, Methyl 6-chloro-5-(2-(5-(4-chloro-2-fluorophenyl)-2-methyl-7,8-dihydro-[1,3,4]thiadiazolo[2′,3′:2,3]imidazo[4,5-c]pyridin-6(5H)-yl)-2-oxoethoxy)picolinate]",32
17,"Cc1nn2c3c(nc2s1)CCN(C(=O)COc1ccc(C#N)nc1Cl)C3c1ccc(Cl)cc1F (centres unmarked) [Example 1.4.9, 6-chloro-5-(2-(5-(4-chloro-2-fluorophenyl)-2-methyl-7,8-dihydro-[1,3,4]thiadiazolo[2′,3′:2,3]imidazo[4,5-c]pyridin-6(5H)-yl)-2-oxoethoxy)picolinonitrile]",36
18,"Cc1nn2c3c(nc2s1)CCN(C(=O)COc1ccc(I)nc1Cl)C3c1ccc(Cl)cc1F (centres unmarked) [Example 1.4.10, 1-(5-(4-chloro-2-fluorophenyl)-2-methyl-7,8-dihydro-[1,3,4]thiadiazolo[2′,3′:2,3]imidazo[4,5-c]pyridin-6(5H)-yl)-2-((2-chloro-6-iodopyridin-3-yl)oxy)ethanone]",8
